Experimental findings from US20060165670A1, “Synbiotic combination” (priority 2003, published 2006) are described below.

Assay [1] has as its system yeasts. In words: Continuous culture chemostat with faecal inocula and antimicrobials. The format is cell-based. As to conditions: 1 gl^−1 in medium, compared to control chemostats. On the procedure: (§1) (i) Continuous culture system: Three chemostats are set up in a parallel; each is maintained under nitrogen gas, at 37° C., pH 6.5 and a dilution rate of 0.066 h^−1. These conditions are set to resemble conditions typically found in the distal region of the human colon. The chemostats are fed with a control growth medium which comprised (gl^−1 in distilled water): yeast extract 2, peptone water 2, NaCl 0.1, K2HPO4 0.04, KH2PO4 0.04, MgSO4.7H2O 0.01, CaCl2.H2O 0.01, NaHCO3 2, Tween 80 2, hemin 0.05, Vitamin K1 0.01, cysteine.HCl 0.5, bile salts 0.5, glucose 0.4, starch 3, pectin 2 and arabinogalactan 1. The medium is autoclaved at 121° C. for 30 min and, whilst still hot, placed under nitrogen gas. After the medium has cooled, 1 gl^−1 of filter sterilised tetracycline or 1 gl^−1 of filter sterilised nystatin is aseptically added to the medium reservoir. Control chemostats with no antimicrobials added are also run. […]
(§2) (iii) Microbial culture techniques: A sample is taken from each fecal slurry used as inocula and 1 ml samples are also removed from each chemostat when the fermentation system has reached steady state (after 164 h). […] After 24-48 h of Incubation aerobic colonies are counted and after 48-72 h of incubation anaerobic plates are enumerated. […]

Assay [2] relates to Lactobacilli. The assay is described as above. As to conditions: 1 gl^−1 in medium. The format is cell-based. On the procedure:
as §1, §2

As to `C[C@@H]1[C@H](O)[C@@H](C)/C=C/C=C/CC/C=C/C=C/C=C/C=C/C(O[C@H]2O[C@H](C)[C@@H](O)[C@H](N)[C@@H]2O)CC2O[C@](O)(CC(O)C(O)CCC(O)CC(O)CC(O)CC(=O)O[C@H]1C)CC(O)C2C(=O)O` (some centres unmarked) [nystatin], in assay [1], the effect on yeasts entry is listed as “yeasts are inhibited”. Further, the effect on lactobacilli result in assay [2] is reported as “reduction in lactobacilli”.
